# Experimental data from patent publication US6476025B1, “Phenylphennanthridines with PDE-IV inhibiting activity” (Altana Pharma AG, priority 1999, dated 2002).
# Tested on: PDE4
# Assay: Inhibition of PDE4 activity (method of Bauer and Schwabe, adapted to microtiter plates)
# Assay type: biochemical
# Conditions: inhibitory concentration as −log IC50 (mol/l)
# Method: The activity test was carried out according to the method of Bauer and Schwabe, which was adapted to microtiter plates (Naunyn-Schmiedeberg's Arch. Pharmacol. 1980, 311, 193-198). The PDE reaction takes place in the first step here. In a second step, the resulting 5′-nucleotide is cleaved by a 5′-nucleotidase of the snake venom of Crotalus atrox to the uncharged nucleoside. In the third step, the nucleoside is separated from the remaining charged substrate on ion-exchange columns. The columns are eluted directly into minivials, into which 2 ml of scintillator fluid are additionally added, for counting using 2 ml of 30 mM ammonium formate (pH 6.0).
# The inhibitory values determined for the compounds according to the invention [inhibitory concentration as −log Ic50 (mol/l)] follow from the following Table A, in which the numbers of the compounds correspond to the numbers of the examples.
row,SMILES,"−log IC50, inhibition of the PDE4 activity"
1,"CCC(=O)c1ccc(C2=N[C@H]3CCCC[C@H]3c3cc(OC)c(OC)cc32)cc1 [Compound 50, (−)-cis-8,9-Dimethoxy-6-[4-propionylphenyl]-1,2,3,4,4a,10b-hexahydrophenanthridine]",7.98
2,"COc1cc2c(cc1OC)[C@@H]1CCCC[C@@H]1N=C2c1ccc(C(=O)c2ccccc2)cc1 [Compound 1, (−)-cis-8,9-Dimethoxy-6-(4-benzoylphenyl)-1,2,3,4,4a,10b-hexahydrophenanthridine]",7.82
3,"COc1cc2c(cc1OC)[C@@H]1CCCC[C@@H]1N=C2c1ccc(C(=O)c2ccc([N+](=O)[O-])cc2)cc1 [Compound 29, (−)cis-8,9-Dimethoxy-6-[4-(4-nitrobenzoyl)phenyl]-1,2,3,4,4a,10b-hexahydrophenanthridine]",7.28
4,"COc1cc2c(cc1OC)[C@@H]1CCCC[C@@H]1N=C2c1cccc(Oc2ccccc2)c1 [Compound 5, (−)-cis-8,9-Dimethoxy-6-(3-phenoxyphenyl)-1,2,3,4,4a,10b-hexahydrophenanthridine]",8.54
5,"COc1cc2c(cc1OC)[C@@H]1CCCC[C@@H]1N=C2c1cccc(OS(=O)(=O)c2ccc(C)cc2)c1 [Compound 14, (−)-cis-8,9-Dimethoxy-6-[3-(p-toluenesulfonyloxy)phenyl)-1,2,3,4,4a,10b-hexahydrophenanthridine]",8.44
6,"COc1cc2c(cc1OC)C1CCCCC1N=C2c1ccc(OC)c(OC2CCC2)c1 (single isomer, unassigned; (-)) [Compound 44, (−)cis-8,9-Dimethoxy-6-[(3-cyclobutoxy-4-methoxy)phenyl]-1,2,3,4,4a,10b-hexahydrophenanthridine]",7.58
7,"CCOc1cc2c(cc1OC)C(c1ccc(C(=O)c3ccccc3)cc1)=N[C@H]1CCCC[C@@H]21 [Compound 25, (−)-cis-9-Ethoxy-8-methoxy-6-(4-benzoylphenyl)-1,2,3,4,4a,10b-hexahydrophenanthridine]",8.87
8,"COc1cc2c(cc1OC)C1CCCCC1N=C2c1ccc(NC(C)=O)c(OCC2CC2)c1 (single isomer, unassigned; (-)) [Compound 45, (−)-cis-8,9-Dimethoxy-6-[(3-cyclopropylmethoxy-4-acetamido)phenyl]-1,2,3,4,4a,10b-hexahydrophenanthridine]",8.04
9,"CCOc1cc2c(cc1OC)C(c1ccc(OCC3CC3)c(OCC3CC3)c1)=NC1CCCCC21 (single isomer, unassigned; (-)) [Compound 40, (−)-cis-9-Ethoxy-8-methoxy-6-[3,4-bis(cyclopropylmethoxy)phenyl]-4,2,3,4,4a,10b-hexahydrophenanthridine]",8.65
10,"COc1cc2c(cc1OC)[C@@H]1CCCC[C@@H]1N=C2c1cccc(S(=O)(=O)c2ccccc2)c1 [Compound 33, (−)-cis-8,9-Dimethoxy-6-[3-(phenylsulfonyl)phenyl]-1,2,3,4,4a,10b-hexahydrophenanthridine]",8.23
11,"COc1cc2c(cc1OC)C1CCCCC1N=C2c1ccc(CN2CCN(C)CC2)cc1 (single isomer, unassigned; (-)) [Compound 22, (−)-cis-8,9-Dimethoxy-6-[4-(4-methylpiperazin-1-ylmethyl)phenyl]-1,2,3,4,4a,10b-hexphenanthridine]",7.27
12,"COc1cc2c(cc1OC)C1CCCCC1N=C2c1ccc(C(C)=O)cc1 (single isomer, unassigned; (-)) [Compound 2, (−)-cis-8,9-Dimethoxy-6-(4-acetophenyl)-1,2,3,4,4a,10b-hexahydrophenanthridine]",7.27
13,"COc1cc2c(cc1OC)C1CCCCC1N=C2c1ccc(C(=O)N2CCCCC2)cc1 (single isomer, unassigned; (-)) [Compound 16, (−)-cis-8,9-Dimethoxy-[4-(piperdin-1-ylcarbonyl)phenyl]-1,2,3,4,4a,10b-hexahydrophenanthridine]",8.02
14,"COc1cc2c(cc1OC)[C@@H]1CCCC[C@@H]1N=C2c1ccc(OC)c(OCC2CC2)c1 [Compound 12, (−)-cis-8,9-Dimethoxy-6-[3-cyclopropylmethoxy4-methoxyphenyl]-1,2,3,4,4a,10b-hexahydrophenanthridine]",7.80
15,"COc1cc2c(cc1OC)[C@@H]1CCCC[C@@H]1N=C2c1cccc(Oc2ccncc2)c1 [Compound 37, (−)-cis-8,9-Dimethoxy-6-[3-(pyrid-4-yloxy)phenyl]-1,2,3,4,4a,10b-hexahydrophenanthridine]",7.92
16,"COc1cc2c(cc1OC)C1CCCCC1N=C2c1ccc(OCC2CC2)c(OCC2CC2)c1 (single isomer, unassigned; (-)) [Compound 15, (−)-cis-8,9-Dimethoxy-6-[3,4-bis-(cyclopropylmethoxy)phenyl]-i,2,3,4,4a,10b-hexahydrophenanthridine]",7.89
17,"COc1cc2c(cc1OC)[C@@H]1CCCC[C@@H]1N=C2c1ccc(C(=O)c2ccc(C#N)cc2)cc1 [Compound 31, (−)-cis-8,9-Dimethoxy-6-[4-(4-cyanobenzoyl)phenyl]-1,2,3,4,4a,10b-hexahydrophenanthridine]",7.8
18,"CCOc1ccc(C2=N[C@H]3CCCC[C@H]3c3cc(OC)c(OC)cc32)cc1OCC1CC1 [Compound 38, (−)-cis-8,9-Dimethoxy-6-(3-cyclopropylmethoxy-4-ethoxyphenyl)-1,2,3,4,4a,10b-hexahydrophenanthridine]",7.47
19,"COc1cc2c(cc1OC)[C@@H]1CCCC[C@@H]1N=C2c1ccc(CN2CCOCC2)cc1 [Compound 21, (−)-cis-8,9-Dimethoxy-6-[4-(morpholin-4-ylmethyl)phenyl]-1,2,3,4,4a,10b-hexahydrophenanthridine]",7.35
20,"COc1cc2c(cc1OC)[C@@H]1CCCC[C@@H]1N=C2c1ccc(OC(F)F)c(OCC2CC2)c1 [Compound 42, (−)-cis-8,9-Dimethoxy-6-(3-cyclopropylmethoxy-4-difluoromethoxyphenyl)-1,2,3,4,4a,10b-hexahydrophenanthridine]",7.43
21,"COc1cc2c(cc1OC)[C@@H]1CCCC[C@@H]1N=C2c1cccc(C(=O)c2ccccc2)c1 [Compound 3, (−)-cis-8,9-Dimethoxy-6-(3-benzoylphenyl)-1,2,3,4,4a,10b-hexahydrophenanthridine]",8.64
22,"COc1cc2c(cc1OC)[C@@H]1CCCC[C@@H]1N=C2c1cccc(OCCc2ccccc2)c1 [Compound 8, (−)-cis-8,9-Dimethoxy-6-(3-phenethyloxyphenyl)-1,2,3,4,4a,10b-hexahydrophenanthridine]",8.41
23,"COc1ccc(C(=O)c2ccc(C3=N[C@H]4CCCC[C@H]4c4cc(OC)c(OC)cc43)cc2)cc1 [Compound 26, (−)-cis-8,9-Dimethoxy-6-[4-(4-methoxybenzoyl)phenyl]-1,2,3,4,4a,10b-hexahydrophenanthridine]",7.46
24,"COc1cc2c(cc1OC)[C@@H]1CCCC[C@@H]1N=C2c1ccc(C(=O)c2ccc(Cl)cc2)cc1 (relative stereo) [Compound 27, (−)-cis-8,9-Dimethoxy-6-[4-(4-chlorbenzoyl)phenyl]-1,2,3,4,4a,10b-hexahydrophenanthridine]",7.3
